Reference: US20110166221A1, “USE OF DRONEDARONE FOR THE PREPARATION OF A MEDICAMENT FOR USE IN THE PREVENTION OF CARDIOVERSION” (SANOFI-AVENTIS, priority 2008, published 2011)
Where a name gives a salt, the structure may show the parent alone.

Test system: patients with a history of atrial fibrillation or atrial flutter
Experiment: prospective, multinational, double-blind, randomized, multi-center, placebo-controlled, parallel group trial for the prevention of cardioversion
Assay type: in vivo, human
Procedure: Efficacy of dronedarone and its pharmaceutically acceptable salts versus placebo for the prevention of cardioversion was provided via dronedarone hydrochloride during a prospective, multinational, double-blind, randomized, multi-center, placebo-controlled, parallel group trial.
Patients must have a history of atrial fibrillation or atrial flutter and/or may be in normal sinus rhythm or in atrial fibrillation or flutter at the time of recruitment.
Recruitment of patients was conducted taking into account the following inclusion criteria:
• 1) One of the following risk factors had to be present: • age equal to or greater than 70 years, • hypertension (taking antihypertensives of at least two different classes), • diabetes, • history of cerebral stroke (transient ischemic event or completed cerebral stroke) or of systemic embolism, • left atrial diameter greater than or equal to 50 mm measured by echocardiography, • left ventricular ejection fraction less than 40%, measured by two-dimensional echography; • or • age equal to or above 70, or even above 75, possibly combined with at least one of the risk factors below: • hypertension (taking antihypertensives of at least two different classes), • diabetes, • history of cerebral stroke (transient ischemic event or completed cerebral stroke) or of systemic embolism, • left atrial diameter greater than or equal to 50 mm measured by echocardiography, • left ventricular ejection fraction less than 40%, measured by two-dimensional echography; • 2) availability of one electrocardiogram within the last six months, showing that the patients was or is in atrial fibrillation/flutter, • 3) availability of one electrocardiogram within the last six months, showing that the patients was or is in sinus rhythm.
Study drug treatment units (placebo or dronedarone hydrochloride corresponding to 400 mg of base) were such that each patient took one tablet in the morning during or shortly after breakfast and one tablet in the evening during or shortly after dinner.
The treatment duration depended on the time of recruitment of each patient in the trial and could be comprised from 12 months to 30 months.
Results were calculated using non-parametric Kaplan-Meier estimate.
Cox's proportional hazard model was used to estimate the hazard ratio also called relative risk.
Relative risk (RR) is the ratio between the risk of having a cardioversion for patients treated with dronedarone and the risk of having a cardioversion for patients treated with placebo.
Percentage of decrease of an event is calculated as follow: […]

With `CCCCc1oc2ccc(NS(C)(=O)=O)cc2c1C(=O)c1ccc(OCCCN(CCCC)CCCC)cc1` [dronedarone hydrochloride, 2-n-butyl-3-[4-(3-di-n-butylaminopropoxy)benzoyl]-5-methylsulfonamido-benzofuran] the “events (cardioversion) registered” value (2301 of 4628 patients treated, 400 mg of base twice a day with meals, 12 to 30 months, placebo group 481 events) was 339, the “Calculated relative risk (hazard ratio) of having a cardioversion versus placebo” value (Cox's proportional hazard model, 400 mg of base twice a day, 12 to 30 months, p<0.001) was 0.68 and the “time course of effect, Kaplan Meier cumulative incidence from randomization to first cardioversion (FIG. 1)” value (on-study period 12-30 months) was “occurred early and increased over time”. For the same compound, the “decrease of electrical cardioversion” value (x=1-RR versus placebo, p<0.001) was 32%.
